Test results published in the SangsterLogP compilation.

Experiment: method code SF-AS, from DOI: 10.1002/jps.2600800814, PMID: 1791539

| SMILES | logP |
| --- | --- |
| CCCCc1nc(C#N)c(C#N)nc1C | 2.3 |
| CCOc1cncc(Cl)n1 | 2.22 |
| CCOc1cnc(Cl)cn1 | 1.99 |
| Cc1cncc(C(N)=O)n1 | -0.13 |
| Cc1cnc(Cl)cn1 | 1.08 |
| COc1cncc(N)n1 | 0.73 |
| CCc1ncc(C)nc1CC | 1.95 |
| CCOc1cncc(OCC)n1 | 2.55 |
| Nc1cncc(N)n1 | -0.45 |
| Cc1nc(C#N)c(C#N)nc1Cl | 1.29 |
| COc1cnc(N)cn1 | 0.63 |
| CCOc1cncc(C(N)=O)n1 | 0.61 |
| Cc1cncc(N)n1 | 0.35 |
| Cc1cnc(C)c(Cl)n1 | 1.5 |
| CCc1nc(C#N)c(C#N)nc1Cl | 1.79 |
| CN(C)c1cncc(Cl)n1 | 1.95 |
| Clc1cncc(Cl)n1 | 1.53 |
| COc1cnc(N(C)C)cn1 | 1.65 |
| CN(C)c1cncc(C#N)n1 | 1.12 |
| COc1cncc(C)n1 | 1.29 |
| Cc1cncc(Cl)n1 | 1.03 |
| Cc1cncc(N(C)C)n1 | 1.57 |

| SMILES | logP |
| --- | --- |
| CCCCc1nc(C#N)c(C#N)nc1Cl | 2.89 |
| NC(=O)c1cncc(Cl)n1 | 0.28 |
| N#Cc1cncc(Cl)n1 | 0.79 |
| CCOc1cncc(OC)n1 | 1.98 |
| COc1cnc(Cl)cn1 | 1.52 |
| N#Cc1ncc(Cl)nc1C#N | 0.95 |
| Nc1cnc(Cl)cn1 | 0.67 |
| Clc1cnc(Cl)cn1 | 1.58 |
| CN(C)c1cncc(C(N)=O)n1 | 0.38 |
| COc1cncc(C#N)n1 | 0.95 |
| Fc1cncc(F)n1 | 0.74 |
| COc1cncc(Cl)n1 | 1.65 |
| Cc1nc(C)c(C)nc1C | 1.28 |
| CCCOc1cncc(Cl)n1 | 2.71 |
| Cc1cnc(C)c(C)n1 | 0.95 |
| Cc1cnc(C#N)cn1 | 0.26 |
| Fc1cncc(Cl)n1 | 1.15 |
| Cc1cncc(C)n1 | 0.54 |
| Cc1cncc(C#N)n1 | 0.44 |
| Nc1cncc(Cl)n1 | 0.95 |
| CN(C)c1cnc(Cl)cn1 | 1.7 |
| COc1cncc(N(C)C)n1 | 1.99 |

Next, values leading:

| logP | SMILES |
| --- | --- |
| 1.24 | CCOC(=O)c1cncc(N(C)C)n1 |
| 1.57 | CCCc1nccnc1C |
| 1.81 | CSc1nccnc1C |
| 1.14 | COc1cnc(OC)cn1 |
| 2.24 | Cc1nccnc1OC(C)C |
| 1.2 | CCOC(=O)c1cncc(OC)n1 |
| 2.1 | CCCCc1nccnc1C |
| 0.56 | CC(=O)Nc1cnc(Cl)cn1 |
| 0.1 | COC(=O)c1cncc(C)n1 |
| 0.65 | CCOC(=O)c1nccnc1C(=O)OCC |
| 0.54 | Cc1nccnc1C |
| 1.58 | COc1cncc(OC)n1 |
| 0.47 | COC(=O)c1cncc(Cl)n1 |
| 0.69 | COC(=O)c1cncc(OC)n1 |
| -0.25 | Cc1cnc(C(N)=O)cn1 |
| 0.38 | CC(=O)Nc1cncc(C)n1 |
| 0.38 | N#Cc1nccnc1C#N |
| 1.51 | CCc1nccnc1CC |
| 0.13 | COc1cncc(C(N)=O)n1 |
| 0.9 | COC(=O)c1cncc(N(C)C)n1 |
| 1.82 | CCOc1nccnc1C |
| 0.17 | COC(=O)c1cnc(C)cn1 |
| 0.61 | CCOC(=O)c1cnc(C)cn1 |
| 1.07 | CCc1nccnc1C |
| 0.82 | COc1cncc(NC(C)=O)n1 |
| 0.51 | CCOC(=O)c1cncc(C)n1 |
| 1.1 | CC(=O)Nc1cncc(Cl)n1 |
| 1.24 | COc1nccnc1C |
| -0.02 | COC(=O)c1nccnc1C(=O)OC |
| 1.8 | CCc1nccnc1OC |
